Data as given in patent US10155750B2, “Amidoethyl azole orexin receptor antagonists” (Merck Sharp & Dohme Corp., priority 2014, dated 2018).

Experiments:
human orexin-2 receptor = human orexin-2 receptor (Homo sapiens (Human), UniProt O43614); experiment: FLIPR Ca2+ flux assay, hOX2R; type: cell-based; settings: CHO cells expressing the receptor; agonist 70 pM Ala-6,12 human orexin-A
Procedure: The utility of the compounds in accordance with the present invention as orexin receptor OX1R and/or OX2R antagonists may be readily determined without undue experimentation by methodology well known in the art, including the “FLIPR Ca^2+ Flux Assay” (Okumura et al., Biochem. Biophys. Res. Comm. 280:976-981, 2001). In a typical experiment the OX1 and OX2 receptor antagonistic activity of the compounds of the present invention was determined in accordance with the following experimental method. For intracellular calcium measurements, Chinese hamster ovary (CHO) cells expressing the rat orexin-1 receptor or the human orexin-2 receptor, are grown in Iscove's modified DMEM containing 2 mM L-glutamine, […], 1% hypoxanthine-thymidine supplement, 100 U/ml penicillin, 100 μg/ml streptomycin and 10% heat-inactivated fetal calf serum (FCS). The cells are seeded at 20,000 cells/well into Becton-Dickinson black 384-well clear bottom sterile plates coated with poly-D-lysine. All reagents were from GIBCO-Invitrogen Corp. The seeded plates are incubated overnight at 37° C. and 5% CO2. Ala-6,12 human orexin-A as the agonist is prepared as a 1 mM stock solution in 1% bovine serum albumin (BSA) and diluted in assay buffer (HBSS containing 20 mM HEPES, 0.1% BSA and 2.5 mM probenecid, pH7.4) for use in the assay at a final concentration of 70 pM. Test compounds are prepared as 10 mM stock solution in DMSO, then diluted in 384-well plates, first in DMSO, then assay buffer. On the day of the assay, cells are washed 3 times with 100 μl assay buffer and then incubated for 60 min (37° C., 5% CO2) in 60 μl assay buffer containing 1 μM Fluo-4AM ester, 0.02% pluronic acid, and 1% BSA. The dye loading solution is then aspirated and cells are washed 3 times with 100 μl assay buffer. 30 μl of that same buffer is left in each well. Within the Fluorescent Imaging Plate Reader (FLIPR, Molecular Devices), test compounds are added to the plate in a volume of 25 μl, incubated for 5 min and finally 25 μl of agonist is added. Fluorescence is measured for each well at 1 second intervals for 5 minutes and the height of each fluorescence peak is compared to the height of the fluorescence peak induced by 70 pM Ala-6,12 orexin-A with buffer in place of antagonist. For each antagonist, IC50 value (the concentration of compound needed to inhibit 50% of the agonist response) is determined. Alternatively, compound potency can be assessed by a radioligand binding assay (described in Bergman et. al. Bioorg. Med. Chem. Lett. 2008, 18, 1425-1430) in which the inhibition constant (Ki) is determined in membranes prepared from CHO cells expressing either the OX1 or OX2 receptor. The intrinsic orexin receptor antagonist activity of a compound which may be used in the present invention may be determined by these assays.

[1] = molecular target: hOX1R (orexin-1 receptor) (Homo sapiens, UniProt O43613); experiment: FLIPR Ca2+ flux assay, hOX1R; type: cell-based; settings: CHO cells expressing the receptor; agonist 70 pM Ala-6,12 human orexin-A

Sequence of human orexin-2 receptor (O43614 whole entry): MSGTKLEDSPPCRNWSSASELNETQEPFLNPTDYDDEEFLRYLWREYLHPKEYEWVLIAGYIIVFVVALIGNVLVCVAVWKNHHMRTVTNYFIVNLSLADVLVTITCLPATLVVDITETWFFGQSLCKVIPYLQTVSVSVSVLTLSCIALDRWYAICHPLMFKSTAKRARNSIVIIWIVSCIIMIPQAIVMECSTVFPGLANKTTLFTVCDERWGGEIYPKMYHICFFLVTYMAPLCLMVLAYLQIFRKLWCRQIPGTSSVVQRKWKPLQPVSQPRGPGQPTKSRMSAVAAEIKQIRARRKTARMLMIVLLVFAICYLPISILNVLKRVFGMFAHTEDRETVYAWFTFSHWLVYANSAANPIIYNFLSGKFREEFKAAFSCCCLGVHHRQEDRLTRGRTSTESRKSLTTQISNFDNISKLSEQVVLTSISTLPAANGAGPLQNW

Row | Structure (SMILES) | IC50 (human orexin-2 receptor) | IC50 [1]
1 | CCN(CCn1ncc(C(C)(C)O)n1)C(=O)c1ccccc1-n1nccn1 [Example 1, N-Ethyl-N-(2-(4-(2-hydroxypropan-2-yl)-2H-1,2,3-triazol-2-yl)ethyl)-2-(2H-1,2,3-triazol-2-yl)benzamide] | 58 nM | > 10000 nM
2 | CCN(CCn1ncc(C(C)(O)CC)n1)C(=O)c1ccccc1-n1nccn1 (centres unmarked) [Example 2, N-Ethyl-N-(2-(4-(2-hydroxybutan-2-yl)-2H-1,2,3-triazol-2-yl)ethyl)-2-(2H-1,2,3-triazol-2-yl)benzamide] | 65 nM | > 10000 nM
3 | CCN(CCn1ncc(C(C)O)n1)C(=O)c1ccccc1-n1nccn1 (centres unmarked) [Example 3, N-Ethyl-N-(2-(4-(1-hydroxyethyl)-2H-1,2,3-triazol-2-yl)ethyl)-2-(2H-1,2,3-triazol-2-yl)benzamide] | 373 nM | > 10000 nM
4 | CCN(CCn1ncc(C(C)(C)O)n1)C(=O)c1ccccc1C1CC1 [Example 4, 2-Cyclopropyl-N-ethyl-N-(2-(4-(2-hydroxypropan-2-yl)-2H-1,2,3-triazol-2-yl)ethyl)benzamide] | 47 nM | > 10000 nM
5 | CCN(CCn1ncc(C(C)(C)O)n1)C(=O)c1ccccc1N1CCCC1 [Example 5, N-ethyl-N-(2-(4-(2-hydroxypropan-2-yl)-2H-1,2,3-triazol-2-yl)ethyl)-2-(pyrrolidin-1-yl)benzamide] | 41 nM | > 10000 nM
6 | CCN(CCn1ncc(C(C)(C)O)n1)C(=O)c1ccccc1SC(F)(F)F [Example 11, N-ethyl-N-(2-(4-(2-hydroxypropan-2-yl)-2H-1,2,3-triazol-2-yl)ethyl)-2-((trifluoromethyl)thio)benzamide] | 34 nM | > 10000 nM
7 | CCN(CCn1ncc(C(C)(C)O)n1)C(=O)c1ccccc1OC(F)(F)F [Example 12, N-ethyl-N-(2-(4-(2-hydroxypropan-2-yl)-2H-1,2,3-triazol-2-yl)ethyl)-2-(trifluoromethoxy)benzamide] | 247 nM | > 10000 nM
8 | CCN(CCn1ncc(C(C)(C)O)n1)C(=O)c1ccccc1OC(C)C [Example 18, N-ethyl-N-(2-(4-(2-hydroxypropan-2-yl)-2H-1,2,3-triazol-2-yl)ethyl)-2-isopropoxybenzamide] | 145 nM | > 10000 nM
9 | CCN(CCn1nc(C)c(C(C)(C)O)n1)C(=O)c1ccccc1-n1nccn1 [Example 20, N-Ethyl-N-(2-(4-(2-hydroxypropan-2-yl)-5-methyl-2H-1,2,3-triazol-2-yl)ethyl)-2-(2H-1,2,3-triazol-2-yl)benzamide] | 12 nM | 2860 nM
10 | CCN(CCn1nc(C)c(C(C)(C)O)n1)C(=O)c1cccnc1OCC(F)(F)F [Example 21, N-Ethyl-N-(2-(4-(2-hydroxypropan-2-yl)-5-methyl-2H-1,2,3-triazol-2-yl)ethyl)-2-(2,2,2-trifluoroethoxy)nicotinamide] | 21 nM | > 10000 nM
11 | CCN(CCn1nc(C)c(C(C)(C)O)n1)C(=O)c1cccnc1OC(C)C [Example 22, N-ethyl-N-(2-(4-(2-hydroxypropan-2-yl)-5-methyl-2H-1,2,3-triazol-2-yl)ethyl)-2-isopropoxynicotinamide] | 61 nM | > 10000 nM
12 | CCOc1ncccc1C(=O)N(CC)CCn1nc(C)c(C(C)(C)O)n1 [Example 23, 2-ethoxy-N-ethyl-N-(2-(4-(2-hydroxypropan-2-yl)-5-methyl-2H-1,2,3-triazol-2-yl)ethyl)nicotinamide] | 58 nM | > 10000 nM
13 | CCN(CCn1nc(C)c(C(C)(C)O)n1)C(=O)c1cccnc1OCC(F)F [Example 24, 2-(2,2-difluoroethoxy)-N-ethyl-N-(2-(4-(2-hydroxypropan-2-yl)-5-methyl-2H-1,2,3-triazol-2-yl)ethyl)nicotinamide] | 44 nM | > 10000 nM
14 | CCN(CCn1nc(C)c(C(C)(C)O)n1)C(=O)c1ccccc1OC(F)F [Example 25, 2-(difluoromethoxy)-N-ethyl-N-(2-(4-(2-hydroxypropan-2-yl)-5-methyl-2H-1,2,3-triazol-2-yl)ethyl)benzamide] | 35 nM | > 10000 nM
15 | CCN(CCn1nc(C)c(C(C)(C)O)n1)C(=O)c1ccccc1OC(F)(F)F [Example 26] | 19 nM | > 10000 nM
16 | CCOc1ccccc1C(=O)N(CC)CCn1nc(C)c(C(C)(C)O)n1 [Example 27, 2-ethoxy-N-ethyl-N-(2-(4-(2-hydroxypropan-2-yl)-5-methyl-2H-1,2,3-triazol-2-yl)ethyl)benzamide] | 27 nM | > 10000 nM
17 | CCN(CCn1nc(C)c(C(C)(C)O)n1)C(=O)c1ccccc1C1CC1 [Example 28, 2-cyclopropyl-N-ethyl-N-(2-(4-(2-hydroxypropan-2-yl)-5-methyl-2H-1,2,3-triazol-2-yl)ethyl)benzamide] | 13 nM | 1560 nM
18 | CCN(CCn1nc(C)c(C(C)(C)O)n1)C(=O)c1ccccc1-n1cccn1 [Example 29, N-ethyl-N-(2-(4-(2-hydroxypropan-2-yl)-5-methyl-2H-1,2,3-triazol-2-yl)ethyl)-2-(1H-pyrazol-1-yl)benzamide] | 28 nM | > 10000 nM
19 | CCN(CCn1nc(C)c(C(C)(C)O)n1)C(=O)c1ccc(F)cc1-n1nccn1 [Example 30, N-ethyl-4-fluoro-N-(2-(4-(2-hydroxypropan-2-yl)-5-methyl-2H-1,2,3-triazol-2-yl)ethyl)-2-(2H-1,2,3-triazol-2-yl)benzamide] | 10 nM | 5540 nM
20 | CCN(CCn1nc(C)c(C(C)(C)O)n1)C(=O)c1cccnc1-c1ccccc1 [Example 31, N-ethyl-N-(2-(4-(2-hydroxypropan-2-yl)-5-methyl-2H-1,2,3-triazol-2-yl)ethyl)-2-phenylnicotinamide] | 33 nM | > 10000 nM
21 | CCCc1ccccc1C(=O)N(CC)CCn1nc(C)c(C(C)(C)O)n1 [Example 32, N-ethyl-N-(2-(4-(2-hydroxypropan-2-yl)-5-methyl-2H-1,2,3-triazol-2-yl)ethyl)-2-propylbenzamide] | 32 nM | 2210 nM
22 | CCN(CCn1nc(C)c(C(C)(C)O)n1)C(=O)c1ccccc1OCC(F)(F)F [Example 33, N-ethyl-N-(2-(4-(2-hydroxypropan-2-yl)-5-methyl-2H-1,2,3-triazol-2-yl)ethyl)-2-(2,2,2-trifluoroethoxy) benzamide] | 52 nM | > 10000 nM
23 | CCN(CCn1nc(C)c(C(C)(C)O)n1)C(=O)c1ccccc1CC(F)(F)F [Example 34, N-ethyl-N-(2-(4-(2-hydroxypropan-2-yl)-5-methyl-2H-1,2,3-triazol-2-yl)ethyl)-2-(2,2,2-trifluoroethyl) benzamide] | 37 nM | > 10000 nM
24 | CCN(CCn1nc(C)c(C(C)(C)O)n1)C(=O)c1ccccc1OCC(F)F [Example 35, 2-(2,2-difluoroethoxy)-N-ethyl-N-(2-(4-(2-hydroxypropan-2-yl)-5-methyl-2H-1,2,3-triazol-2-yl)ethyl)benzamide] | 35 nM | > 10000 nM
25 | CCN(CCn1nc(C)c(C(C)(C)O)n1)C(=O)c1cccnc1CC(F)(F)F [Example 36, N-ethyl-N-(2-(4-(2-hydroxypropan-2-yl)-5-methyl-2H-1,2,3-triazol-2-yl)ethyl)-2-(2,2,2-trifluoroethyl) nicotinamide] | 270 nM | > 10000 nM
26 | CCN(CCn1nc(C)c(C(C)(C)O)n1)C(=O)c1ccccc1CC(F)F [Example 37, 2-(2,2-difluoroethyl)-N-ethyl-N-(2-(4-(2-hydroxypropan-2-yl)-5-methyl-2H-1,2,3-triazol-2-yl)ethyl)benzamide] | 10 nM | > 10000 nM
27 | CCN(CCn1nc(C)c(C(C)(C)O)n1)C(=O)c1ccccc1C1CC1(F)F (centres unmarked) [Example 38, 2-(2,2-difluorocyclopropyl)-N-ethyl-N-(2-(4-(2-hydroxypropan-2-yl)-5-methyl-2H-1,2,3-triazol-2-yl)ethyl)benzamide] | 10 nM | 1480 nM
28 | CCN(CCn1nc(C)c(C(C)(C)O)n1)C(=O)c1ccc(OC)nc1C1CC1 [Example 39, 2-cyclopropyl-N-ethyl-N-(2-(4-(2-hydroxypropan-2-yl)-5-methyl-2H-1,2,3-triazol-2-yl)ethyl)-6-methoxynicotinamide] | 14 nM | 2840 nM
